Test results reported in patent US20080271210A1, “Oryza Sativa Lectin-Like Receptor Kinase 1 (Oslrk1), a Gene Involved in Plant Development” (Temasek Life Sciences Laboratory National University of …, priority 2004, published 2008).

How the values were obtained:
[1] = test system: WT seeds and seedlings; assay: Germination and growth of WT seeds in galactose/mannose containing media; assay type: in vivo, Oryza sativa
Source text: (§1) The altered expression of the Oslrk1 by different sugars described above led us to study the response of the mutant to these monosaccharides and sucrose. The WT and the mutant seeds were germinated and grown in Gal, Man, Glu, Fm along with Suc at different concentrations (ranging from 0.1% to 1%) and Suc alone containing medium as a control. The following parameters were taken into account during observation: the shoot length, the number and the length of adventitious roots and the germination rate. […] Out of these three sugars tested, Man was selected as an example as its inhibitory effect was similar in seeds and seedlings of WT and mutant as shown in FIGS. 10A and B. The seed germination was severely affected by Man.
(§2) At 1.0% of the Gal, the shoot length decreased by half in the mutant, whereas only by 15% in the WT seedlings. […] Apart from this, the germination rate of the WT seeds dropped to 85% whereas in the mutant it dropped to 30%.
(§3) Germination of WT and mutant seeds in galactose/mannose containing media. WT and mutant seeds were germinated separately on MS medium containing 0.8% agar and 1% sucrose. In addition, D(+)galactose/D(+/−)mannose was added in different concentrations (0.1, 0.2, 0.5, and 1.0%) along with a control (MS with 1% of sucrose). At 14 days after germination, the observations for adventitious root number and length (cm), shoot length (cm) and germination rate (%) were recorded.

[2] = test system: Oslrk1 mutant seeds and seedlings; assay: Germination and growth of Oslrk1 mutant seeds in galactose/mannose containing media; assay type: in vivo, Oryza sativa; conditions: for behavior of the mutant compared with the WT upon treatment: sugar 0.1% to 1% along with Suc
Source text: as §1, §2, §3

[3] = test system: Oslrk11; assay: RT-PCR of Oslrks in treated 2 week-old seedlings; assay type: in vivo, Oryza sativa; conditions: treated vs control
Protocol: (§4) RT-PCRs were carried out on RNA samples isolated from 2 week-old seedlings treated with various sugar (FIG. 13), hormone (FIG. 14), and abiotic stresses (FIG. 15) using primers designated to either 3′ or 5′ Untranslated Regions (UTRs) of the 15 Oslrks found in Table 2. For each Oslrk two lanes in the gel are found, the first lane is the control and the second one treatment samples.
(§5) Table 3 provides a summary of all the above referenced data on the Oslrks, showing the RT-PCR results of various treatments, including sugar, hormone and abiotic stress and northern blot results on various tissues of rice plant grown in normal conditions, and the ESTs, or cDNAs availability in the database. In the table, “I” represents induced expression and “R” represents repressed expression.

[4] = test system: Oslrk8; assay: RT-PCR of Oslrks in treated 2 week-old seedlings; assay type: in vivo, Oryza sativa; conditions: treated vs control
Protocol: as §4, §5

[5] = test system: Oslrk5; assay: RT-PCR of Oslrks in treated 2 week-old seedlings; assay type: in vivo, Oryza sativa; conditions: treated vs control
Protocol: as §4, §5

[6] = test system: Oslrk4; assay: RT-PCR of Oslrks in treated 2 week-old seedlings; assay type: in vivo, Oryza sativa; conditions: treated vs control
Protocol: as §4, §5

[7] = test system: Oslrk1 gene; assay: Northern-blot of Oslrk1 transcript in WT seedlings treated with hormones and SA; assay type: in vivo, Oryza sativa; conditions: for Oslrk1 gene expression repressed by: 3' UTR probe, vs untreated
Source text: Differential Regulation of Oslrk1 Gene Expression by Hormones. Receptor-like kinases were postulated to be involved in signal transduction events as they perceive a signal via a ligand-binding extracellular domain and transmit it through the serine/threonine kinase domain into the cytosol (Shiu and Bleecker, 2001). In order to know possible factors influencing the Oslrk1 gene regulation, we analyzed promoter of the Oslrk1 (1.5 kb) for the presence of cis-acting elements using the program PlantCARE (Lescot et al., 2002). Three TGAGC motifs observed in MeJA inducible genes were found in promoter of the Oslrk1 at the positions −186, −657 and −1190. Apart from these, three GA3 inducible motifs (P-box-CCTTxt) −101, −206 and −740 bp upstream of the Oslrk1 ORF were located. In addition, five salicylic acid inducible motifs (TCA-elementcAGAAa/ga) at the positions of −321, −601, −604, −855 and −1135 were detected. The presence of MeJA, GA and SA responsive cis-elements in the Oslrk1 promoter indicated possible regulatory roles of these factors. The promoter analysis led us to study the effect of different hormones and compounds on the Oslrk1 transcription. The WT seeds were germinated for […] then seedlings were transferred to the medium containing one of the following chemicals: […], MeJA, GA3 or ABA at concentration 100 uM and SA (5 mM) for 24 hours (Materials and Methods). The total RNA isolated from the untreated and treated seedlings were used in Northern-blot hybridization using 3′ UTR of the Oslrk1 gene as a probe. The treatment with GA3 and SA repressed the Oslrk1 gene expression (FIG. 8A) by 2.5 and 3.3 times respectively. […] In order to confirm the level of induction of the Oslrk1 gene by MeJA over time, in another series of experiments, a time course was performed after hormone treatment. Seven day old seedlings were sprayed with 100 uM of MeJA solution and they were harvested in 1, 2, 4, 6, 8, and 12 hours.
RNA Isolation and Northern-blot Analysis. RNA was isolated from different organs of rice plant at different developmental stages (roots of 10-14 days old seedlings and 2 months old plants, 10-14 days old seedlings, young and mature leaves, panicles at the flowering stage and calli) using a RNeasy Plant mini kit (Qiagen,). The RNA (10 ug) was fractionated on a 1.2% denaturating formaldehyde agarose gel and transferred onto a Hybond-N^+ membrane (Amersham). The bolts were hybridized with dogoxigenin (DIG)-labeled probes in DIG Easy Hyb solution (Roche) at 50° C. After hybridization, membranes were washed twice with 2×SSC and 0.1% SDS for 15 min, then twice with 0.5×SSC and 0.1% SDS for 15 min at 68° C. Detection was carried out according to manufacturer using DIG Wash and Block Buffer set and chemiluminescent substrate CDP Star™ (Roche). DIG-labelled probe corresponded to 3′UTR and lectin domain of Oslrk1 was used. For the control of RNA quantity, DIG-probe corresponding to rice Actin1 gene was synthesized using the following primers: […]
(§6) The RT-PCRs and Northern blots were repeated at least thrice and similar results were obtained. The quantification of the intensity of the hybridization signals was performed using Quantity ONE 4.5.0 software in Gel doc XR documentation system (Bio-Rad Laboratories, Inc., USA). The level of actual expression was calculated as a ratio of intensity of specific signal (Oslrk1 3′UTR probe) to the intensity of signal of positive control (rice Act1).
Treatment of WT Seedlings with Hormones and Sugars. Two week old WT seedlings were transferred to MS medium containing 100 μM of different hormones, such as Indole 3-Acetic Acid (IAA), Abscisic acid (ABA), Methyl Jasmonate (MeJA), or Gibbrellic Acid (GA3) and 5 mM of Salicylic Acid (SA), and were grown for 24 hours under normal day/light conditions. Total RNA was extracted from root of the seedlings and whole seedlings. […]

[8] = test system: WT seedlings; assay: Growth of WT seedlings in MeJA or GA3 containing medium; assay type: in vivo, Oryza sativa
Protocol: (§7) In order to study the effect of phytohormones on the Oslrk1 mutant, seeds were grown in medium containing different concentrations of either MeJA ([…]) (FIG. 9A) or GA3 (0.5, 1, 5 and 10 μm) (data not shown) along with WT as a control The number and length of adventitious roots, number of lateral roots and shoot length were measured. […] In the WT seedlings the number of the lateral roots was increased at 5 uM and decreased by at 10 uM.
(§8) The adventitious root length of WT increased by 50% at 10 uM concentration of GA3, but it was not altered in the mutant (data not shown).
(§9) Plant Growth Conditions. Surface sterilized rice seeds were germinated and grown in cell culture containers (Phytatray II Sigma cell culture, USA) on 0.8% agar MS medium (Murashige and Skoog medium, Sigma., St. Louis Mo., USA) containing 1% of Suc for 2 weeks under 16/8 hours photoperiod. All chemicals used for the various treatments were purchased from Sigma.
(§10) Growth of WT and Mutant Seedlings in MeJA Containing Medium WT and mutant seeds were germinated and grown in MS medium (1% Suc) containing different concentrations of MeJA (1 μM, 5 μM, and 10 μM) for two weeks. No MeJA was added in the control. The number and length (cm) of adventitious roots as well as the number of lateral roots were measured.

[9] = test system: Oslrk1 mutant seedlings; assay: Growth of Oslrk1 mutant seedlings in MeJA or GA3 containing medium; assay type: in vivo, Oryza sativa
Protocol: as §7, §8, §9, §10

[10] = test system: Oslrk1 gene; assay: Northern-blot of Oslrk1 transcript in WT seedlings treated with sugars; assay type: in vivo, Oryza sativa; conditions: sugars 175 mM, 48 hours, Mannitol as osmotic control
Protocol: Lectins are known as carbohydrate-binding proteins that specifically recognize diverse sugar structures (Vijayan and Chandra, 1999). […] Five different sugars: glucose (Glu), sucrose (Suc), fructose (Fm), Gal and Man were used for this study along with Mannitol as an osmotic control (Methods). Northern-blot hybridizations were carried out on the total RNA isolated from treated seedlings.
RNA Isolation and Northern-blot Analysis. RNA was isolated from different organs of rice plant at different developmental stages (roots of 10-14 days old seedlings and 2 months old plants, 10-14 days old seedlings, young and mature leaves, panicles at the flowering stage and calli) using a RNeasy Plant mini kit (Qiagen,). […] For the control of RNA quantity, DIG-probe corresponding to rice Actin1 gene was synthesized using the following primers: […]
as §6, with “Act1). […]” for “Act1).”

[11] = test system: adventitious roots; conditions: rice, Moons et al., 1997; cited from earlier work
[12] = test system: Oslrk10; assay: RT-PCR of Oslrks in treated 2 week-old seedlings; assay type: in vivo, Oryza sativa; conditions: Rt, treated vs control
Protocol: as §4, §5

[13] = test system: Oslrk2; assay: RT-PCR of Oslrks in treated 2 week-old seedlings; assay type: in vivo, Oryza sativa; conditions: treated vs control
Protocol: as §4, §5

[14] = GA3 10 uM, two weeks in MS agar
[15] = seedlings sprayed with 100 uM, time course 1-12 hours

Compound: O=C[C@@H](O)[C@@H](O)[C@H](O)[C@H](O)CO (racemic) [Man, mannose]
- effect on any parameters tested (shoot length, number and length of adventitious roots, germination rate) ([1]; mannose 0.1%): No obvious effect
- seed germination rate ([1]; mannose 0.2%): 35%
- seed germination ([1]; mannose 0.5%): did not germinate
- effect on any parameters tested (shoot length, number and length of adventitious roots, germination rate) ([2]; Oslrk1 mutant, mannose 0.1%): No obvious effect
- seed germination rate ([2]; Oslrk1 mutant, mannose 0.2%): 35%
- seed germination ([2]; Oslrk1 mutant, mannose 0.5%): did not germinate
- behavior of the mutant compared with the WT upon treatment [2]: No significant differences
- Oslrk11 expression by RT-PCR, Rt [3]: I
- Oslrk8 expression by RT-PCR, Rt [4]: I
- Oslrk5 expression by RT-PCR, Rt [5]: I
- Oslrk5 expression by RT-PCR, Sh [5]: R
- Oslrk4 expression by RT-PCR, Rt [6]: I

Compound: O=C(CO)[C@@H](O)[C@H](O)[C@H](O)CO [Fm, fructose]
- behavior of the mutant compared with the WT upon treatment [2]: No significant differences

Compound: C=C1C[C@]23C[C@@]1(O)CC[C@H]2[C@@]12C=C[C@H](O)[C@@](C)(C(=O)O1)[C@H]2[C@@H]3C(=O)O [GA3, Gibbrellic Acid]
- Oslrk1 gene expression repressed by ([7]; 100 uM, 24 hours, WT seedlings): 2.5 times
- Oslrk11 expression by RT-PCR, Rt [3]: I
- Oslrk11 expression by RT-PCR, Sh ([3]; Sh): R
- Oslrk8 expression by RT-PCR, Rt [4]: I
- Oslrk5 expression by RT-PCR, Rt [5]: I
- Oslrk4 expression by RT-PCR, Rt [6]: I
- adventitious root length increased by [8, 14]: 50%
- adventitious root length [9, 14]: not altered

Compound: O=C[C@H](O)[C@@H](O)[C@H](O)[C@H](O)CO [Glu, glucose]
- behavior of the mutant compared with the WT upon treatment [2]: No significant differences
- Oslrk8 expression by RT-PCR, Rt [4]: I
- Oslrk8 expression by RT-PCR, Sh ([4]; Sh): R
- Oslrk4 expression by RT-PCR, Rt [6]: I
- Oslrk4 expression by RT-PCR, Sh [6]: R

Compound: OC[C@@H](O)[C@@H](O)[C@H](O)[C@H](O)CO [Mannitol]
- Oslrk1 expression in response to sugars [10]: not altered

Compound: CC/C=C\CC1C(=O)CCC1CC(=O)OC (stereo not drawn) [MeJA, Methyl Jasmonate]
- concentration at which development of adventitious roots was inhibited [11]: more than 3 μM
- Oslrk1 transcript, intensity of the hybridization signal increased by ([7]; 100 uM, 24 hours, WT seedlings, compared to the control): 3.2 times
- maximum induction of Oslrk1 expression relative to untreated sample [7, 15]: approximately 3 times
- time of maximum Oslrk1 induction [7, 15]: 8 h
- Oslrk5 expression by RT-PCR, Rt [5]: I
- Oslrk5 expression by RT-PCR, Sh [5]: R
- Oslrk4 expression by RT-PCR, Rt [6]: I
- Oslrk4 expression by RT-PCR, Sh [6]: R
- number of the lateral roots ([8]; MeJA 5 uM): increased
- number of adventitious roots ([8]; MeJA 10 uM): opposite to the effect observed at 5 uM
- number of the lateral roots ([8]; MeJA 10 uM): decreased
- reduction in length of adventitious roots ([8]; MeJA 10 uM): approximately 75%
- shoot length ([8]; MeJA 1, 5, 10 uM, two weeks): decreased
- number of adventitious roots ([8]; MeJA up to 5 uM): gradually increased
- number of adventitious roots ([9]; MeJA 10 uM): opposite to the effect observed at 5 uM
- number of lateral roots ([9]; MeJA 1, 5, 10 uM): no significant changes
- shoot length ([9]; MeJA 1, 5, 10 uM, two weeks): decreased
- number of adventitious roots ([9]; MeJA up to 5 uM): gradually increased
- length of adventitious roots ([9]; MeJA up to 10 uM): not reduced significantly

Compound: O=C(O)c1ccccc1O [SA, Salicylic Acid]
- Oslrk1 gene expression repressed by ([7]; 5 mM, 24 hours, WT seedlings): 3.3 times
- Oslrk11 expression by RT-PCR, Rt [3]: I
- Oslrk8 expression by RT-PCR, Rt [4]: I
- Oslrk5 expression by RT-PCR, Rt [5]: I
- Oslrk10 expression by RT-PCR, Rt [12]: I
- Oslrk4 expression by RT-PCR, Rt [6]: I

Compound: OC[C@H]1O[C@@](CO)(O[C@H]2O[C@H](CO)[C@@H](O)[C@H](O)[C@H]2O)[C@@H](O)[C@@H]1O [Suc, sucrose]
- Oslrk11 expression by RT-PCR, Rt [3]: I
- Oslrk5 expression by RT-PCR, Rt [5]: I
- Oslrk5 expression by RT-PCR, Sh [5]: I
- Oslrk2 expression by RT-PCR, Rt ([13]; Rt): I
- Oslrk2 expression by RT-PCR, Sh ([13]; Sh): R
